From patent US20260286309A1, “DIFFERENTIATION OF IPSCS IN BIOREACTORS” (REPAIRON GMBH, priority 2022, published 2026)

Legend:
iPSCs (TC1133) [1] = assay: Cardiac differentiation of iPSCs in suspension (ambr15, 2-factor protocol CHIR/IWP4); format: cell-based, human
Protocol: The cardiac differentiation potential of iPSCs after long-term culture was assessed by direct differentiation into iPSC-CMs using a published 2-factor protocol (Chen et al., 2015). iPSC aggregates were differentiated in the ambr15 system and the medium was exchanged manually. Briefly, the basal medium on day 0-5 consisted of RPMI 1640+2% B-27 supplement without insulin. From day 6 onwards the basal medium was RPMI 1640+2% b-27 supplement. To initiate mesodermal differentiation, CHIR was added in varying concentrations on day 1. 5 μM IWP4 was added on day 2 and 3 or day 3 and 4 to initiate cardiac differentiation. A main goal of this project was to ensure that the cardiac differentiation potential remains in iPSCs that are cultivated with the developed expansion strategy. The cardiac differentiation potential was assessed by using a published protocol for the directed cardiac differentiation of PSCs in suspension culture (Chen et al., 2015). iPSCs in suspension were successfully differentiated into iPSC-CMs during early passages (Cultivation Optimization Run 12) and during late passages (Cultivation Optimization Run 13) of long-term cultures. Thereby, proof of concept was shown that iPSCs generated with the developed expansion strategy can be used to produce iPSC-CMs in suspension culture.

iPSCs (TC1133) [2] = assay: Y27632 pretreatment before automatic passaging of iPSC aggregates in ambr15 suspension culture (Cultivation Optimization Run 08); format: cell-based, human
Text: The nucleocounter NC-200 offers fast and reliable assessment of cell number and viability. Furthermore, it is GMP-compliant and is used during the production stage. Single cell suspensions may be directly measured with the NC-200, whereas suspensions with high content of cell clumps should be treated according to special protocols, supplied with the NC-200. These protocols include cell lysis to ensure distinguishability of single nuclei. However, large iPSC aggregates of about 70-250 μm, which were obtained in the suspension culture, could not be sufficiently lysed with the provided protocols within a reasonable time. Therefore, iPSC aggregates were digested using TrypLE before measurement with the NC-200. […] This suspension was then used for measurement with the NC-200 using the “Viability and Cell Count—A100 and B Assay” intended for small cell aggregates.
The pluripotency state of iPSCs was assessed by analyzing the pluripotency-related markers NANOG, TRA-1-60, and OCT4 using flow cytometry. iPSC aggregates were digested with TrypLE to achieve a near singe cell suspension. Subsequently the cells were fixed by adding Histofix to the cell suspension in a 1:1 ratio (resulting in 2% PFA). For analysis, the cells were stained with fluorochrome-conjugated antibodies. Dead cells were excluded from the analysis with Hoechst staining. Accordingly, the expression of a-Actinin and cTNT was analyzed to assess the success of cardiac differentiation.
The aggregate size was analyzed using a Cellavista device. Culture samples were transferred into a 24-well plate prepared with PBS (—Ca2+/—Mg2+) and measured with the Cellavista. Images were processed by the Cellavista software by applying a threshold to discriminate aggregates from background. The software FIJI (Schindelin et al., 2012) was subsequently used to analyze aggregate size.
To increase the degree of reaggregation, pretreatment with ROCK inhibitor Y27632 was tested. Pretreatment of iPSCs with Y27632 has been reported for other procedures that require cell singularization and are stressful for iPSCs (Chatterjee et al., 2011). […]

Structure (SMILES)	optimal concentration for successful cardiac differentiation (iPSCs (TC1133) [1]; iPSCs of earlier passages (passage 0)) [µM]	optimal concentration for successful cardiac differentiation (iPSCs (TC1133) [1]; iPSCs of later passages (passage 8)) [µM]	expression of NANOG (iPSCs (TC1133) [2]; day 3, passage 1, flow cytometry, Y27632 pretreatment) [%]	expansion rate (iPSCs (TC1133) [2]; day 5, passage 1, 10 μM Y27632 pretreatment, Versene passaging) [fold]	aggregate size (mean) (iPSCs (TC1133) [2]; passage 1, Y27632 pretreatment) [μm]
Cc1c[nH]c(-c2cnc(NCCNc3ccc(C#N)cn3)nc2-c2ccc(Cl)cc2Cl)n1 [CHIR, CHIR99021]	6	18			
C[C@@H](N)[C@H]1CC[C@H](C(=O)Nc2ccncc2)CC1 [Y27632]			93	9	162
